Patent US20070015733A1, “Aryl Phosphate Derivatives of d4T having Activity Against Resistant HIV Strains” (Parker Hughes Institute, priority 1998, published 2007)
Where two headings read alike, the source gives them in different places.

Columns and labels:
[1] = tested on: NRTI-resistant recombinant HIV-1 isolates; settings: cited from earlier work
[2] = tested on: NRTI-resistant recombinant HIV-1 isolates; experiment: Documented fold decreased susceptibility of recombinant HIV-1 clones; type: cell-based; settings: for mean reduction in susceptibility: mean over 6 recombinant clones; for median reduction in susceptibility: median over 6 recombinant clones
[3] = tested on: HIV-1 (HTLVIIIB) in TK-deficient CEM T-cells; experiment: Inhibition of HIV-1 replication in TK-deficient CEM T-cells (p24 / RT activity); type: cell-based; settings: TK-deficient CEM T-cells, read-out: CEM IC50 [RT]
Experimental: (§1) Percent inhibition of viral replication was calculated by comparing the p24 and RT activity values from the test substance-treated infected cells with those from untreated infected cells. In parallel, the cytotoxicity of the compounds was examined using a microculture tetrazolium assay (MTA) of cell proliferation, as described.in the Zarling, Enrice, and Uckun articles Supra).
(§2) Cellular Assays of Anti-HIV Activity and Cytotoxicity. […] Percent viral inhibition was calculated by comparing the RT activity values from the test substance-treated infected cells with RT values from untreated infected cells (i.e., virus controls).

HIV-1 (strain: HTLVIIIB) = experiment: microbe, parasite or virus in culture; type: cell-based; settings: PBMNC, read-out: PBMNC IC50 [RT]
Experimental: as §1, §2

[4] = tested on: NRTI-resistant recombinant HIV-1 isolates; experiment: RT activity assay, multi-NRTI-resistant recombinant HIV-1 clones; type: cell-based
[5] = tested on: NRTI-resistant recombinant HIV-1 isolates; experiment: p24 assay, multi-NRTI-resistant recombinant HIV-1 clones; type: cell-based
[6] = unit not given in Table 5 (0.04 = 40 nM)

O=c1[nH]cnc2c1ncn2[C@H]1CC[C@@H](CO)O1 [didanosine]
Fold decreased susceptibility ([1]; recombinant clone 1617-1): 23 fold
Fold decreased susceptibility ([1]; recombinant clone 4755-5): 2.4 fold
Fold decreased susceptibility ([1]; recombinant clone 7295-1): 1.9 fold
Fold decreased susceptibility ([1]; recombinant clone 7324-1): 1.7 fold
Fold decreased susceptibility ([1]; recombinant clone 52534-2): 3.3 fold
Fold decreased susceptibility ([1]; recombinant clone 56252-1): 28 fold
mean reduction in susceptibility [2]: 10.1 fold
median reduction in susceptibility [2]: 2.9 fold

C[C@H](Cn1cnc2c(N)ncnc21)OCP(=O)(O)O [tenofovir]
Fold decreased susceptibility ([1]; recombinant clone 1617-1): 2.4 fold
Fold decreased susceptibility ([1]; recombinant clone 4755-5): 2.3 fold
Fold decreased susceptibility ([1]; recombinant clone 7295-1): 1.1 fold
Fold decreased susceptibility ([1]; recombinant clone 7324-1): 8.1 fold
Fold decreased susceptibility ([1]; recombinant clone 52534-2): 4.2 fold
Fold decreased susceptibility ([1]; recombinant clone 56252-1): 11 fold
mean reduction in susceptibility [2]: 4.9 fold
median reduction in susceptibility [2]: 3.3 fold

COC(=O)C(C)NP(=O)(OCC1OC(n2cc(C)c(=O)[nH]c2=O)CC1N=[N+]=[N-])Oc1ccccc1 (stereo not shown) [Compound 5a]
IC50 ([3]; Table 5): 1700 nM

COC(=O)[C@H](C)NP(=O)(OC[C@@H]1CC[C@H](n2cc(C)c(=O)[nH]c2=O)O1)Oc1ccccc1 (stereo partly shown) [Compound 2a]
IC50 ([3]; Table 4): 7500 nM
IC50 ([3]; Table 5): 7500 nM
IC50 (HIV-1 (strain: HTLVIIIB); Table 4): 2100 nM
IC50 (HIV-1 (strain: HTLVIIIB); [6]): 2100 nM

3dT-5′-(para-bromophenyl methoxyalaninyl phosphate) [Compound 2d]
IC50 ([3]; Table 4): 22800 nM
IC50 ([3]; Table 5): 22800 nM
IC50 (HIV-1 (strain: HTLVIIIB); Table 4): 1200 nM
IC50 (HIV-1 (strain: HTLVIIIB); [6]): 1200 nM

COC(=O)C(C)NP(=O)(OCC1OC(n2cc(C)c(=O)[nH]c2=O)CC1N=[N+]=[N-])Oc1ccc(OC)cc1 (stereo not shown) [Compound 5b]
IC50 ([3]; Table 5): 4100 nM
IC50 (HIV-1 (strain: HTLVIIIB); [6]): 100 nM

COC(=O)C(C)NP(=O)(OCC1CCC(n2cc(C)c(=O)[nH]c2=O)O1)Oc1ccc(F)cc1 (mixture of isomers) [Compound 2c]
IC50 ([3]; Table 4): 32700 nM
IC50 (HIV-1 (strain: HTLVIIIB); Table 4): 3100 nM

CC(C)(C)NC(=O)[C@@H]1CN(Cc2cccnc2)CCN1C[C@@H](O)C[C@@H](Cc1ccccc1)C(=O)N[C@H]1c2ccccc2C[C@H]1O [indinavir]
IC50 ([4]; Human immunodeficiency virus 1, read-out: IC50 (nM), RT, recombinant clone 1617-1): 5.2 nM
IC50 ([4]; Human immunodeficiency virus 1, read-out: IC50 (nM), RT, recombinant clone 4755-5): 4.8 nM
IC50 ([4]; Human immunodeficiency virus 1, read-out: IC50 (nM), RT, recombinant clone 7295-1): 1.4 nM
IC50 ([4]; Human immunodeficiency virus 1, read-out: IC50 (nM), RT, recombinant clone 7324-1): 5.7 nM
IC50 ([4]; Human immunodeficiency virus 1, read-out: IC50 (nM), RT, recombinant clone 52534-2): 12.2 nM
IC50 ([4]; Human immunodeficiency virus 1, read-out: IC50 (nM), RT, recombinant clone 56252-1): 3.7 nM
IC50 ([4]; Human immunodeficiency virus 1, read-out: mean IC50, RT, mean over 6 multi-NRTI-resistant clones): 5.5 ± 1.5 nM
IC50 ([5]; Human immunodeficiency virus 1, read-out: IC50 (nM), p24, recombinant clone 1617-1 (151 complex)): 20.5 nM
IC50 ([5]; Human immunodeficiency virus 1, read-out: IC50 (nM), p24, recombinant clone 4755-5): 9.4 nM
IC50 ([5]; Human immunodeficiency virus 1, read-out: IC50 (nM), p24, recombinant clone 7295-1): 17.2 nM
IC50 ([5]; Human immunodeficiency virus 1, read-out: IC50 (nM), p24, recombinant clone 7324-1): 21.8 nM
IC50 ([5]; Human immunodeficiency virus 1, read-out: IC50 (nM), p24, recombinant clone 52252-1 in Table 18, 56252-1 in Tables 19 and 20 (K65R, 151 complex)): 9 nM
IC50 ([5]; Human immunodeficiency virus 1, read-out: IC50 (nM), p24, recombinant clone printed 52534-1 in Table 18, 52534-2 in Tables 19 and 20 (69 insertion complex)): 36.5 nM

Nc1nc(NC2CC2)c2ncn([C@H]3C=C[C@@H](CO)C3)c2n1 [abacavir]
Fold decreased susceptibility ([1]; recombinant clone 1617-1): >100 fold
Fold decreased susceptibility ([1]; recombinant clone 4755-5): 7.7 fold
Fold decreased susceptibility ([1]; recombinant clone 7295-1): 6.1 fold
Fold decreased susceptibility ([1]; recombinant clone 7324-1): 4.2 fold
Fold decreased susceptibility ([1]; recombinant clone 52534-2): 22 fold
Fold decreased susceptibility ([1]; recombinant clone 56252-1): >100 fold
mean reduction in susceptibility [2]: 40 fold
median reduction in susceptibility [2]: 14.9 fold

COC(=O)C(C)NP(=O)(OCC1CCC(n2cc(C)c(=O)[nH]c2=O)O1)Oc1ccc([N+](=O)[O-])cc1 (mixture of isomers) [Compound 2e]
IC50 ([3]; Table 4): 22600 nM
IC50 (HIV-1 (strain: HTLVIIIB); Table 4): 2000 nM

Cc1cn([C@H]2CC[C@@H](CO)O2)c(=O)[nH]c1=O [Compound 3dT, 3′-deoxythymidine]
IC50 ([3]; Human immunodeficiency virus 1, T-cell, Table 4): 91200 nM
IC50 ([3]; Human immunodeficiency virus 1, T-cell, Table 5): 91200 nM
IC50 (HIV-1 (strain: HTLVIIIB); Human immunodeficiency virus 1, Table 4): 700 nM
